In brackets after ≈: the same amount, converted by molar mass. Read-outs that look alike come from different tables or passages of the source.

A word on the MIC: it is the lowest concentration found to suppress growth. As a reminder, the LD50 is the dose at which mortality reaches 50%.

In series [1] the test system is Aspergillus niger. The series is described as follows: Agar diffusion test (hole-test). In kind it is cell-based. The note with it: 168 h, 27° C. for 7 days, read-out: MIC, A.D.T., Aspergillus niger. The protocol: (§1) The inhibitory effect on bacteria and fungi was examined by the serial dilution test and the agar diffusion test (hole-test). As bacteria were used: Staphylococcus aureus SG 511, Streptococcus Aronson, Streptococcus pyogenes At CC 86 68; as fungi: Candida albicans AT CC 10231, Trichophyton mentagrophytes AT CC 9129 and Aspergillus niger.
(§2) 3. Sabouraud agar: for C. alb., Trich. ment., A. niger
(§3) The age of the primary cultures is 24 hours for bacteria and 14 days for fungi. The standardization of the suspension of microorganisms is effected using a photometer according to Eppendorf (test tube .phi.14 mm, filter 546 nm) and a suspension for comparison consisting of barium sulfate, this suspension being created by addition of 3.0 ml of 1% barium chloride solution to 97 ml of 1% sulfuric acid. After the standardization St. aureus SG 511 was diluted 1:1000 and Sc. pyogenes and Aronson 1:100 by means of sodium chloride solution. The fungi were used in an undiluted state.
(§4) 40 mgm of the substance were put into a 10 ml measuring flask and filled up to the mark with the solvent (corresponds to a dilution of 1:250=4000 μg/ml).
(§5) The dilutions to the concentrations under test were effected with distilled water or the respective solvent.
(§6) 19 ml of the nutrient medium were filled into sterile Petri dishes of a diameter of 8 cm and dried. Subsequently the agar plates were charged with 4 ml of seed agar. 100 ml of seed agar contain 1.25 ml of the suspension of microorganisms, an agar plate thus containing 0.05 ml of the suspension of microorganisms. After solidification of the agar, 5 holes of a diameter of 5 mm were punched into the plates and filled with 0.05 ml of the correspondingly concentrated substance solution.
(§7) Control tests merely using the solvent are to be carried out simultaneously.
(§8) Bacteria were incubated at 37° C. for 18-20 hours and fungi at 27° C. for 7 days.
(§9) The diameter of the area of inhibition in mm was measured after having deducted the diameter of the hole.
(In general: A growth-free zone around the sample is the usual read-out of agar diffusion tests.)

Series [2] relates to Candida albicans AT CC 10231. Briefly: Agar diffusion test (hole-test). The note with it: ATCC10231, 168 h, 27° C. for 7 days, read-out: MIC, A.D.T., Candida albicans. It counts as cell-based. The procedure: as §1, §2, §3, §4, §5, §6, §7, §8, §9
In series [3] the test system is Trichophyton mentagrophytes AT CC 9129. Briefly: Agar diffusion test (hole-test). It counts as cell-based. Particulars: ATCC9129, 168 h, 27° C. for 7 days, read-out: MIC, A.D.T., Trichophyton mentagrophytes. The protocol:
as §1, §2, §3, §4, §5, §6, §7, §8, §9

In series [4] the test system is Aspergillus niger. The series is described as follows: Serial dilution test. It counts as cell-based. Particulars: Aspergillus niger, 168 h, 27° C. for 7 days, read-out: MIC, S.D.T., Aspergillus niger. The procedure:
as §1
(§10) 3. Sabouraud broth: for C. alb., Trich. mnt., A. niger
(§11) The age of the primary cultures is 24 hours for bacteria and 14 days for fungi. The standardization of the suspension of microorganisms is effected using a photometer according to Eppendorf (test tube .phi.14 mm, filter 546 nm) and a suspension for comparison consisting of barium sulfate, this suspension being created by adition of 3.0 ml of 1% barium chloride solution to 97 ml of 1% sulfuric acid. After the standardization the bacteria were further diluted to a concentration of 1:1000 by means of sodium chloride solution, the fungi were used in an undiluted state.
(§12) 40 mgm of the substance were put into a 10 ml measuring flask and filled up to the mark with the solvent (corresponds to a dilution of 1:250=4000 μg/ml). The further dilution series was standardized with distilled water or the respective solvent and the following substance concentrations were prepared: 1000; 250; 62.5 μg/ml.
(§13) The tubes were filled with 4.9 ml of the corresponding liquid nutrient medium. Then 0.1 ml of the substance dilution prepared above was added to each tube, so that the mentioned final concentrations were present. Finally each tube was inoculated with 0.1 ml of the standardized suspension of microorganisms. Control tests merely using the solvent are to be carried out simultaneously.
as §8
(§14) The measurement is carried out macroscopically defining the minimal inhibitory concentration (the lowest still microbiostatically effective concentration).

In series [5] the test system is Candida albicans AT CC 10231. Briefly: Serial dilution test. In kind it is cell-based. The note with it: Candida albicans, ATCC10231, 168 h, 27° C. for 7 days, read-out: MIC, S.D.T., Candida albicans. The protocol:
as §1, §10, §11, §12, §13, §8, §14

The test system of series [6] is Trichophyton mentagrophytes AT CC 9129. Briefly: Serial dilution test. In kind it is cell-based. The note with it: ATCC9129, 168 h, 27° C. for 7 days, read-out: MIC, S.D.T., Trichophyton mentagrophytes. The procedure: as §1, §10, §11, §12, §13, §8, §14
Series [7] concerns Pityrosporum ovale CBS 1878. Briefly: Agar diffusion test for Pityrosporum ovale CBS 1878. It counts as cell-based. Particulars: Malassezia furfur, CBS1878, 168 h, 7 days at 27° C., read-out: MIC, A.D.T., Pityrosporum ovale. The procedure:
Agar diffusion test for Pityrosporum ovale CBS 1878 Nutrient medium
Littmann's agar, 23 ml per Petri dish, diameter of dish 100 mm.
Suspension of microorganisms in 0.9% sodium chloride solution, standardized using a photometer according to Eppendorf by means of a suspension for comparison consisting of barium sulfate. 0.05 ml per plate were used. The test substances were dissolved in dimethyl sulfoxide. The incubation time was 7 days at 27° C.; the area of inhibition in mm was measured, 0.05 ml of the solution of the substance were used for each punch-hole of a diameter of 6 mm. The results of these tests are recorded in the following tables 1 and 2: […]

Series [8] relates to Pityrosporum ovale. The series is described as follows: Serial dilution test for Pityrosporum ovale. In kind it is cell-based. Particulars: Malassezia furfur, 168 h, 27° C. for 7 days, read-out: MIC, S.D.T., Pityrosporum ovale. The procedure: (§15) Serial dilution test for Corynebacterium acnes and Pityrosporum ovale Nutrient medium
(§16) For Corynebacterium acnes: thioglycolate-broth for Pityrosporum ovale: Littmann's broth, 5 ml per tube.
(§17) Suspension of microorganisms in 0.9% sodium chloride solution, standardized using a photometer according to Eppendorf by means of a suspension for comparison consisting of barium sulfate, for Corynebacterium acnes in a dilution of 1:100, for Pityrosporum ovale in an undiluted state. 0.1 ml of the suspensions was used per test tube. Dimethyl sulfoxide served as a solvent for the substances.
(§18) The suspension with Corynebacteria acnes was incubated at 37° C. for 48 hours, the suspension of Pityrosporum ovale at 27° C. for 7 days. The reading was effected by macroscopic evaluation of the growth of microorganisms and registration of the minimal inhibitory concentration.

Series [9] relates to HeLa-cell culture. The series is described as follows: Inhibition of HeLa cell cultures. In kind it is cell-based. The note with it: Homo sapiens, 72 h, 37° C. for 3 days, 5% carbon dioxide; for IC50: read-out: ED50, HeLa cell culture; for minimal effective concentration: read-out: Minimal inhibitory concentration, HeLa cell culture. The protocol:
Measurement of the inhibition of cell cultures
HeLa-cell culture was treated with trypsin and adjusted to a cell number of 150,000 cells/ml of fresh medium. The substance was always dissolved in the same quantity of dimethyl sulfoxide and then further diluted with growth medium. 0.1 ml of the substance-dilutions were added to each well of microtiter plates and then 0.2 ml of cell suspension were added (4 wells per dilution). Several growth controls containing 0.1 ml of growth medium instead of 0.1 ml of substance dilution were put up. After careful mixing, the cultures were incubated at 37° C. for 3 days in a 5% carbon dioxide atmosphere. The reading was effected in comparison with these controls. The results were given as the percentage of the deficiency and degeneration compared to the growth control. […] The statements are referred to μg of substance per ml of total medium.

In series [10] the test system is humans. The note with it: in some cases; cited from earlier work.
Series [11] relates to Staphylococcus aureus SG 511. The series is described as follows: Agar diffusion test (hole-test). It counts as cell-based. Particulars: SG511, 18-20 hours at 37° C., read-out: MIC, A.D.T., Staphylococcus aureus SG 511. The protocol: as §1
1. Meat extract agar: for St. aureus SG 511
as §3, §4, §5, §6, §7, §8, §9

The test system of series [12] is Staphylococcus aureus SG 511. The series is described as follows: Serial dilution test. It counts as cell-based. Particulars: Staphylococcus aureus, SG511, 18-20 hours at 37° C., read-out: MIC, S.D.T., Staphylococcus aureus SG 511. The procedure:
as §1
1. Meat extract broth: for St. aureus SG 511
as §11, §12, §13, §8, §14

Series [13] has as its system Streptococcus Aronson. Briefly: Agar diffusion test (hole-test). In kind it is cell-based. Particulars: 18-20 hours at 37° C., read-out: MIC, A.D.T., Streptococcus Aronson. The procedure: as §1
(§19) 2. Glucose agar: for Sc. Aronson and St. pyogenes Recipe see meat extract agar. After sterilization 1 weight percent of glucose is added as a sterile 50% solution.
as §3, §4, §5, §6, §7, §8, §9

Series [14] concerns Streptococcus pyogenes At CC 86 68. Briefly: Agar diffusion test (hole-test). It counts as cell-based. The note with it: ATCC8668, 18-20 hours at 37° C., read-out: MIC, A.D.T., Streptococcus pyogenes. The procedure:
as §1, §19, §3, §4, §5, §6, §7, §8, §9

The subject of series [15] is Streptococcus Aronson. Briefly: Serial dilution test. It counts as cell-based. Particulars: Streptococcus, 18-20 hours at 37° C., read-out: MIC, S.D.T., Streptococcus Aronson. The protocol:
as §1
(§20) 2. Glucose broth: for Sc. Aronson and St. pyogenes Recipe see meat extract broth. After sterilization 1 weight percent of glucose is added as a sterile 50% solution.
as §11, §12, §13, §8, §14

The subject of series [16] is Streptococcus pyogenes At CC 86 68. Briefly: Serial dilution test. It counts as cell-based. Particulars: Streptococcus pyogenes, ATCC8668, 18-20 hours at 37° C., read-out: MIC, S.D.T., Streptococcus pyogenes. The procedure: as §1, §20, §11, §12, §13, §8, §14
Series [17] relates to Corynebacterium acnes. The series is described as follows: Serial dilution test for Corynebacterium acnes. In kind it is cell-based. The note with it: Cutibacterium acnes, 37° C. for 48 hours, read-out: MIC, S.D.T., Corynebacterium acnes. The protocol: as §15, §16, §17, §18
The nature of series [18]: Acute toxicity in mice (LD50). The note with it: mouse, in vivo, death within 14 days. The procedure:
The acute toxicity was determined with mice. The LD50, the dose leading to the death of 50% of the animals within 14 days, was calculated.

Series [19] has as its system skin. The series is described as follows: Compatibility on the skin under occlusion. It counts as in vivo. Particulars: cream containing 10%; over 24 hours under occlusion.
The mark [20] stands for this setting: ip, read-out: LD50 in the mouse, i.p.
The mark [21] stands for this setting: po, read-out: LD50 in the mouse, p.o.
Where [22] appears, read: sc, read-out: LD50 in the mouse, s.c.

For the compound `Cc1c(O)ccc(C(=O)C(F)(F)C(F)(F)F)c1O` [V, 2,4-Dihydroxy-3-methyl-pentafluoropropiophenone], the MIC in [1] was more than 4000 µg/mL; in series [2] it was 4000 µg/mL (≈ 14800 µM); in series [3] it was 250 µg/mL (≈ 925 µM); in series [4], more than 80 µg/mL; in series [5] it was 80 µg/mL (≈ 296 µM); in [6], 20 µg/mL (≈ 74 µM). Moreover, the MIC in [7] was 4000 µg/mL (≈ 14800 µM); in series [8] it was 20 µg/mL (≈ 74 µM). In series [9], the IC50 is 1.5 µg/mL (≈ 5.55 µM). Also, the minimal effective concentration in series [9] is not above 0.78 µg/mL.
As for `CCCCCCc1ccc(O)cc1O` [hexyl-resorcinol], the allergies in humans entry in series [10] is on record as “in some cases cause allergies in humans”.
As for `CCCCCCc1cc(C(=O)C(F)(F)F)c(O)cc1O` [Compound E, 2,4-Dihydroxy-5-n-hexyl-trifluoroacetophenone], the MIC in series [11] is not above 15.6 µg/mL; in series [12] it was 1.25 µg/mL (≈ 4.31 µM); in series [13], not above 15.6 µg/mL; in series [14], not above 15.6 µg/mL; in series [15], 0.31 µg/mL (≈ 1.07 µM); in series [16] it was 0.31 µg/mL (≈ 1.07 µM). Besides, in series [17], the MIC turned out to be 0.08 µg/mL (≈ 0.276 µM). Moreover, the IC50 in [9] came out at 5.81 µg/mL (≈ 20 µM). In addition, the minimal effective concentration in series [9] came out at 0.78 µg/mL. Also, the LD50 at 336 h is 82 mg/kg in series [18] (setting [20]), more than 3200 mg/kg in series [18] (setting [21]) and more than 4000 mg/kg in series [18] (setting [22]). Moreover, the “compatibility on the skin” value in series [19] was “tolerated without irritation”.
`CC(C)c1cc(C(=O)C(F)(F)F)c(O)c(Cc2c(O)c(C(=O)C(F)(F)F)cc(C(C)C)c2O)c1O` [Compound Q, Methylene-bis-(2,6-dihydroxy-3-isopropyl-5-trifluoro-acetyl)-benzene]: the MIC in [11] was not above 15.6 µg/mL; in series [12], 0.08 µg/mL (≈ 0.157 µM); in series [13], not above 15.6 µg/mL; in series [14], not above 15.6 µg/mL; in series [15] it was 1.25 µg/mL (≈ 2.46 µM); in [16], 0.001 µg/mL (≈ 0.00197 µM). Also, in series [17], the MIC was 0.02 µg/mL (≈ 0.0393 µM). Moreover, the LD50 at 336 h in series [18] (setting [20]) was 400 mg/kg; in [18] (setting [21]), more than 4000 mg/kg; in series [18] (setting [22]) it was more than 2 mg/kg.
